How the values were obtained:
ovariectomized rats [1] = assay: Lymphatic absorption of α-tocopherol after 5 weeks of dietary carnitine (mesenteric lymph duct cannulation); assay type: in vivo, rat; conditions: carnitine supplemented diet for 5 weeks
Procedure: Thirty two 10 weeks old female Sprague-Dawley rats weighing 208±8 g (Harlan Sprague Dawley, Indianapolis, Ind.) were housed and fed as described in Example 1. At the end of second week, at the average body weight of 240±9 g, the rats were ovariectomized under halothane anesthesia after 16 hours fasting. Initial (0 week) blood samples were taken from 6 randomly selected rats.
Immediately after surgery, rats were divided into the following two experimental groups as described in Example 1, i.e., one group was fed a diet supplemented with carnitine, and one control group. The normal food intake for both groups was about 15-16 g/day/rat.
At the end of the 5th week, Lymph duct cannulation was performed on each group having an average body weight of 340±15 g. Cannulation of the mesenteric lymph duct was performed, following 16 hours food deprivation, as described previously (Noh et al., supra). Briefly, after a midline abdominal incision was performed, the mesenteric lymph duct was cannulated with polyethylene tubing (SV 31 tubing, Dural Plastics, Auburn, Australia) by securing with a drop of cyanoacrylate glue (Krazy Glue, Columbus, Ohio) under halothane anesthesia (2.0% halothane in 2.01 oxygen/min). A silicone feeding catheter (Silastic medical grade tubing, Dow Coming, Midland, Mich.) was inserted into the gastric fundus region. The infusion catheter was exteriorized alongside the lymph cannula through the right flank. Cannulated rats were placed in individual restraining cages and allowed to recover for at least 20 hours in a warm recovery chamber kept at about 30° C. Immediately following surgery, glucose-phosphate buffered saline (PBS) (in mmol/l: 277 glucose, 6.75 Na2HPO4, 16.5 NaH2PO4, 115 NaCl, and 5 KCI; pH 6.7) was continuously infused through the duodenal cannula at 3.0 ml/h via a syringe pump (Harvard Apparatus, Model 935, South Natick, Mass.).
After postoperative recovery, rats were infused with a lipid emulsion containing 1 μCi of [carboxyl-^14C]-triolein (specific activity 112.0 mCi/mmol, DuPont NEN, Boston, Mass.), 565 μmol triolein (95%, Sigma Chemical, St. Louis, Mo.), 3.56 μmol α-tocopherol (all-rac-a-tocopherol, 97%, Aldrich Chemical, Milwaukee, Wis.), and 396 μmol sodium taurocholic acid in 24 ml of PBS. Lymph was collected hourly for 8 hours in pre-weighed conical centrifuge tubes containing 30 μg of n-propyl gallate and 4 mg of Na2EDTA in ice-filled beakers. After lymph collection, the rats were killed by cervical dislocation, and the livers were collected. The samples were stored at about −70° C. until analysis.
From the lipid extracted (Folch et al., supra), tissue total phospholipid was measured colorimetrically by the method of Reheja et al. (J Lipid Res 1973;14:695-697). Tissue total cholesterol was determined as described by Rudel et al. (J Lipid Res 1973;21:364-366). Alpha-tocopherol was determined as described by Zaspel et al (supra) and in Example 1 above. Statistical analyses were conducted as described in Example 1.

ovariectomized rats [2] = assay: Liver levels and biliary secretion of α-tocopherol after 8 weeks of dietary carnitine (bile duct cannulation); assay type: in vivo, rat
Procedure: Thirty two 10 weeks old female Sprague-Dawley rats weighing 214±6 g (Harlan Sprague Dawley, Indianapolis, Ind.) were placed individually in plastic cages with stainless steel wire-bottoms in a windowless room at a controlled temperature of about 23° C. and subjected to a light-dark cycle with the light period from 3:30 pm to 3:30 am and the dark period from 3:30 am to 3:30 pm. The rats were acclimatized for 1 week with free access to the deionized water and ad libitum fed a zinc-adequate AIN-93G diet (Reeves et al., J Nutr 1993;123:1939-1951) formulated by Dyets, Inc. (Bethlehem, Pa., USA) with 7% soybean oil as a fat source. Zinc carbonate was added to provide the desired levels of zinc. At the end of the first week, at the average body weight of 230±12 g, the rats were ovariectomized under halothane anesthesia after 16 hours of fasting. Initial blood samples (week 0) were taken from 5 randomly selected rats. After 1 week of postoperative recovery, rats were divided into the following two experimental groups by matching body weight: One group of rats was fed a zinc-adequate AIN-93G diet containing α-tocopherol-stripped soybean oil; 150 ppm Sipernat® 50, which is hydrated silica available from Degussa Corporation, Ridgefield, N.J.; and supplemented with 150 mg/kg L-carnitine. A control group was fed the same diet, except that the 150 mg/kg of L-carnitine was substituted with 150 ppm of α-D-glucose. The normal food intake for both groups was around 15 g/day/rat. Blood samples were taken at the beginning of 1, 3, 5, 8 weeks from 5 randomly selected rats in each group. At the end of the 8th week, bile duct cannulation was performed on the rats in both groups having an average body weight of about 340±15 g. Cannulation of the common bile duct was performed, following 16 hours food deprivation, as described previously (Noh et al., J Nutr Biochem 1999;10:110-117). Briefly, after performing a midline abdominal incision, the common bile duct was cannulated with PE-10 tubing (Clay Adams, Sparks, Md.) under halothane anesthesia (2.0% halothane in 2.01 oxygen/min). A silicone feeding catheter (Silastic medical grade tubing, Dow Coming, Midland, Mich.) was inserted into the gastric fundus region. The infusion catheter was exteriorized alongside the bile cannula through the right flank. Cannulated rats were placed in individual restraining cages and allowed to recover for at least 20 hours in a warm recovery chamber kept at about 30° C. Immediately after surgery, glucose-phosphate buffered saline (PBS) (in mmol/l: 277 glucose, 6.75 Na2HPO4, 16.5 NaH2PO4, 115 NaCl, and 5 KCI; pH 6.7) was continuously infused through the duodenal cannula at 3.0 ml/h via a syringe pump (Harvard Apparatus, Model 935, South Natick, Mass.). After postoperative recovery, rats were infused with a lipid emulsion containing 565 μmol triolein (95%, Sigma Chemical, St. Louis, Mo.), and 396 μmol sodium taurocholic acid in 24 ml of PBS. Bile was collected hourly for 8 hours in pre-weighed conical centrifuge tubes containing 30 μg of n-propyl gallate in ice filled beakers. After bile collection, the rats were killed by cervical dislocation, and the livers were dissected. The samples were stored at about −70° C. until analysis. Lipids were extracted by Folch's method (Folch et al., J Biol Chem 1957;226:497-509). The content of α-tocopherol was determined as described by Zaspel et al. (Anal. Biochem. 1983;130:146-150). […]

[3] = significant difference vs control

C[N+](C)(C)C[C@H](O)CC(=O)[O-] [carnitine, L-carnitine]
lymphatic absorption of α-tocopherol for 8 hours (ovariectomized rats [1]; lipid emulsion with 3.56 μmol α-tocopherol infused, P<0.05 vs control): 899±200 nmol/8 h | lymph flow (ovariectomized rats [1]; lymph collected for 8 hours, no difference vs control): 22.6±4.2 ml/8 hours | absorption of 14C-triolein (ovariectomized rats [1]; lymph for 8 hours, P<0.05 vs control): 53.5±4.0 % dose | ratio of lymph α-tocopherol/cholesterol (ovariectomized rats [1]; [3]): 82.7±17.1 nmol/μmol | ratio of lymph α-tocopherol/phospholipid (ovariectomized rats [1]; [3]): 46.9±8.8 nmol/μmol | α-tocopherol concentration per 100 mg total lipid (ovariectomized rats [2]; liver, ovariectomized rats fed a carnitine supplemented diet, compared with control): significantly higher | bile flow (ovariectomized rats [2]; ovariectomized Sprague-Dawley rats, diet with 150 mg/kg L-carnitine for 8 weeks, bile collected for 8 hours, no difference vs control, mean±SD): 7.9±1.4 ml/8 hours | biliary secretion of α-tocopherol for 8 hours (ovariectomized rats [2]; ovariectomized rats, diet with 150 mg/kg L-carnitine for 8 weeks, P<0.05 vs control, mean±SD): 53.1 ± 9.3 nmol | ratio of liver α-tocopherol/phospholipid (ovariectomized rats [2]; ovariectomized rats, diet with 150 mg/kg L-carnitine for 8 weeks, P=0.001 vs control): 4.8±0.6 nmol/μmol | liver concentration of α-tocopherol (ovariectomized rats [2]; ovariectomized rats, diet with 150 mg/kg L-carnitine for 8 weeks, significantly elevated vs control): 129.6 ± 19.5 nmol/g

— patent US6476010B2, “Method for increasing intestinal absorption of fat soluble vitamins in post-menopausal women and lower animals” (Hill's Pet Nutrition, priority 2000, dated 2002)
